Experiments:
[1] = system: RMS cells (RH30, AX-OH-1, RD, FL-OH-1); experiment: Scratch motility assay, RMS cells; type: cell-based, human; settings: 24 h pre-treatment at IC50, all RMS cells tested
Experimental: Cells were seeded in 6-well plates and treated with IC50 AJ-5 and vehicle for 24 h. Cells were then collected, counted and replated to achieve 100% confluency in a 24-well plate. The following day a sterile 2 µL pipette tip was used to make a vertical scratch in the cell monolayer of each well and the cells treated with 10 µM mitomycin C (M4287; Sigma Aldrich) to inhibit proliferation. Cells were imaged at 0, 3, 6, 9, 12 and 24 h post wound formation and ImageJ v1.50i[58] was used to calculate the area of the scratch. The total areas migrated was determined by subtracting the area for a specific time point from the area measured at 0h.

[2] = Pharmacokinetics in whole blood of healthy mice; type: in vivo, MF1 mice; settings: for Cmax: measured as Pd
Experimental: Pharmacokinetic parameters of AJ-5 were determined after IV, IP and PO dosing to MF1 nude mice randomly divided into groups. AJ-5 was prepared in the respective formulations immediately prior to dosing. For the IV group, the compound was made up in a mixture of 10% DMSO and 90% of an IV mixture, which consisted of 60% propylene glycol, 10% ethanol and 30% polyethylene glycol. For the PO group, AJ-5 was dissolved in DMSO and a hydroxypropylmethylcellulose solution (0.5% in water) containing 0.2% Tween 80 in a ratio of 1:9. For the IP group, AJ-5 was dissolved in 10% DMSO and 90% phosphate buffer solution. Mice were permitted access to food and water ad libitum. AJ-5 was administered (100 μL) by oral gavage at a dose of 20 mg/kg (n = 3), intravenously into the penile dorsal vein at a dose of 2 mg/kg (n = 2) and intraperitoneally at a dose of 2 mg/kg (n = 3).
Blood samples (20 μL per sample) were collected by tail tip bleeding in lithium heparin tubes at predetermined time points to evaluate the kinetic profile over 24 h. Samples were stored at −80 °C until analysis. Blood samples together with calibration standards and quality controls were quantified using inductively coupled plasma mass spectrometry. All results reported are for palladium (Pd). Pharmacokinetic parameters of the AJ-5 complex were determined using non-compartmental analysis in PK Solutions 2.0 (Summit Research Systems, Montrose CO, USA).

CC(C)c1cccc(C(C)C)c1[N+]1=Cc2cccc[c]2[Pd-2]1([Cl])[P+](CC[P+](c1ccccc1)(c1ccccc1)[Pd-2]1([Cl])[c]2ccccc2C=[N+]1c1c(C(C)C)cccc1C(C)C)(c1ccccc1)c1ccccc1 (stereo not shown) [AJ-5]
Migratory ability (area migrated) [1]: reduced the migratory ability | AUC0-∞ ([2]; IP 2 mg/kg): 88 ± 67 µmol·min/L | BA ([2]; IP 2 mg/kg): 49 ± 38% | Tmax ([2]; IP 2 mg/kg): 4.0 ± 0.00 h | area under the curve ([2]; IP 2 mg/kg): 88 min.µM/L | Cmax ([2]; IP 2 mg/kg): 30 ± 10 nM | AUC0-∞ ([2]; IV 2 mg/kg): 179 ± 12 µmol·min/L | CL ([2]; IV 2 mg/kg): 9.2 mL/min/kg | Vd ([2]; IV 2 mg/kg): 8.8 L/kg | t1/2 ([2]; IV 2 mg/kg, 2 mg/kg): 11.2 ± 4.8 h | AUC0-∞ ([2]; PO 20 mg/kg): 11 ± 2 µmol·min/L | BA ([2]; PO 20 mg/kg): 1 ± 0.1% | Tmax ([2]; PO 20 mg/kg): 0.8 ± 0.3 h | area under the curve ([2]; PO 20 mg/kg): 11 min.µM/L | Cmax ([2]; PO 20 mg/kg): 6 ± 7 nM | Exposure after IP 2 mg/kg compared to PO 20 mg/kg ([2]; ratio of AUC): eight-fold higher

From article PMC6349869, “The palladacycle complex AJ-5 induces apoptotic cell death while reducing autophagic flux in rhabdomyosarcoma cells” (Cell Death Discovery, 2019)
